Results from ChEMBL document CHEMBL5154776, “Discovery of Potent and Orally Bioavailable Platelet-Derived Growth Factor Receptor (PDGFR) Inhibitors for the Treatment of Osteosarcoma” (J Med Chem, 2022).
Active and inactive are the calls of the source. No cut-off for these calls is given here.

Columns and labels:
[1] = target: T1, Platelet-derived growth factor receptor beta (Homo sapiens, UniProt P09619); experiment: Inhibition of PDGFRbeta phosphorylation in human MG-63 cells incubated for 48 hrs by Western blot analysis; format: cell-based
[2] = system: HOS-TE85; experiment: Induction of DNA damage in human MNNG/HOS cells assessed as tail DNA at 0.1 to 0.4 uM measured after 48 hrs by comet assay; format: functional, cell-based; details: dose 0.1-0.4 µM
[3] = system: HOS-TE85; experiment: Inhibition of cell migration in human MNNG/HOS cells assessed as reduction of cell mobility after 48 hrs by scratch-wound healing assay; format: functional, cell-based; details: dose 0.1-0.4 µM, DDE = dose-dependent effect
[4] = system: HOS-TE85; experiment: Antiinvasive activity against human MNNG/HOS cells assessed as expression of FAK by measuring fluorescence at 0.1 to 0.4 uM upto 48 hrs by DAPI staining based immunofluorescence microscopic analysis; format: functional, cell-based; details: dose 0.1-0.4 µM
[5] = system: MG-63; experiment: Inhibition of PDGFRbeta expression in human MG-63 cells incubated for 48 hrs by Western blot analysis; format: functional, cell-based
[6] = system: HOS-TE85; experiment: Inhibition of PDGFRbeta expression in human MNNG/HOS cells incubated for 48 hrs by Western blot analysis; format: functional, cell-based
[7] = system: HOS-TE85; experiment: Antitumor activity against human MNNG/HOS cells xenografted in BALB/c nude mouse assessed as reduction in tumor growth at 15 to 30 mg/kg/day, po dosed for 14 days; format: functional, organism-based; details: dose lower […], dose upper 30.0 mg/kg/day, time 14.0 day
[8] = system: MG-63; experiment: Antimigratory activity against human MG-63 cells assessed as reduction in cell spreading area upto 48 hrs by DAPI staining based immunofluorescence microscopic analysis; format: functional; details: dose 0.1-0.4 µM, DDE = dose-dependent effect
[9] = system: HOS-TE85; experiment: Antimigratory activity against human MNNG/HOS cells assessed as expression of FAK by measuring fluorescence at 0.1 to 0.4 uM upto 48 hrs by DAPI staining based immunofluorescence microscopic analysis; format: functional, cell-based; details: dose 0.1-0.4 µM
[10] = system: HOS-TE85; experiment: Induction of cell cycle arrest in human MNNG/HOS cells assessed as accumulation of cells at G2/M phase incubated for 48 hrs by propidium iodide staining based flow cytometry analysis; format: functional; details: dose 0.1-0.4 µM, DDE = dose-dependent effect
[11] = target: T1, Platelet-derived growth factor receptor beta; experiment: Binding affinity to PDGFRbeta (unknown origin)
[12] = system: HOS-TE85; experiment: Antimigratory activity against human MNNG/HOS cells assessed as reduction in cell spreading area upto 48 hrs by DAPI staining based immunofluorescence microscopic analysis; format: functional; details: dose 0.1-0.4 µM, DDE = dose-dependent effect
[13] = target: T1, Platelet-derived growth factor receptor beta; experiment: Inhibition of PDGFRbeta-mediated downstream signalling in human MG-63 cells assessed as suppression of STAT3 phosphorylation at 0.1 uM measured after 48 hrs by western blot analysis; format: cell-based
[14] = system: MG-63; experiment: Inhibition of PDGF AA/BB-stimulated human MG-63 cell proliferation measured after 48 hrs by MTT assay; format: functional, cell-based; details: dose 0.1-1.6 µM, DDE = dose-dependent effect
[15] = system: HOS-TE85; experiment: Inhibition of alpha tubulin expression in human MNNG/HOS cells at 0.1 to 0.4 uM measured after 48 hrs by western blot analysis; format: functional, cell-based; details: dose 0.1-0.4 µM
[16] = target: T1, Platelet-derived growth factor receptor beta; experiment: Inhibition of PDGFRbeta-mediated downstream signalling in human MG-63 cells assessed as suppression of ERK phosphorylation at 0.1 uM measured after 48 hrs by western blot analysis; format: cell-based
[17] = system: MG-63; experiment: Induction of apoptosis in human MG-63 cells at 0.4 uM after 48 hrs by Annexin V/PI staining based flow cytometric analysis; format: functional, cell-based
[18] = target: T1, Platelet-derived growth factor receptor beta; experiment: Inhibition of PDGFRbeta-mediated downstream signalling in human MNNG/HOS cells assessed as suppression of ERK phosphorylation at 0.1 to 0.4 uM measured after 48 hrs by western blot analysis; format: cell-based; details: dose 0.1-0.4 µM

T1 sequence (P09619 whole entry): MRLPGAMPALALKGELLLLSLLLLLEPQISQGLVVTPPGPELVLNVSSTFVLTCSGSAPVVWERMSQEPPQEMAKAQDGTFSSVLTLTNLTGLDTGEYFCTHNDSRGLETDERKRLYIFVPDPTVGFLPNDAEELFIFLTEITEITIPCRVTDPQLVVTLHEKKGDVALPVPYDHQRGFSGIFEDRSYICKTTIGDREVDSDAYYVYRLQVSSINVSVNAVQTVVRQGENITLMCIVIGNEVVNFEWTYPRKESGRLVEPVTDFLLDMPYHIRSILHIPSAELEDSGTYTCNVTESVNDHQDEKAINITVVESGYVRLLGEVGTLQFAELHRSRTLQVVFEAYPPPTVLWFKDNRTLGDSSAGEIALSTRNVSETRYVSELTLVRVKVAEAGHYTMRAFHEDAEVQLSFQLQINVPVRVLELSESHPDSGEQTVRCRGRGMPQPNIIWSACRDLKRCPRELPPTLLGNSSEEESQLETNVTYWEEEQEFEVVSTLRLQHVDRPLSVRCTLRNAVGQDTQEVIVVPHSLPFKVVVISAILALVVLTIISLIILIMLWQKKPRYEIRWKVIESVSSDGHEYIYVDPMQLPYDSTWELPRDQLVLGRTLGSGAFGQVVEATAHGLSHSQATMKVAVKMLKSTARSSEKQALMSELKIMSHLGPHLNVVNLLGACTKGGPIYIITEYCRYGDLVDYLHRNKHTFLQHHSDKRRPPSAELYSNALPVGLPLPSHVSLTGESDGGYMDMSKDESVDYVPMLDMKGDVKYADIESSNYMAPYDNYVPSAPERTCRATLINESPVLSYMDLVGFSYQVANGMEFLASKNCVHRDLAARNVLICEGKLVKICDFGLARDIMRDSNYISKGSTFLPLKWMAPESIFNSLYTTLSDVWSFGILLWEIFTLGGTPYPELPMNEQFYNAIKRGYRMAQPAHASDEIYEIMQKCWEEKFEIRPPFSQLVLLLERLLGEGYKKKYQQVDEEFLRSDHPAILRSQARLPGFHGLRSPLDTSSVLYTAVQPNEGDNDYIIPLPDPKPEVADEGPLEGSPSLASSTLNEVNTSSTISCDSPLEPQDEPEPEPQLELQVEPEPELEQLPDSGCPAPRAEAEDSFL

inhibition [1]: Active | Activity [11]: Active | inhibition [13]: Active | inhibition [16]: Active | inhibition [18]: Active
Structure (SMILES): CCN1CCN(c2ccc(Nc3ncc(C)c(Nc4ccc5cn[nH]c5c4)n3)cc2OC)CC1
Activity [2]: Active | inhibition [3]: Dde | Activity [4]: Active | inhibition [5]: Active | inhibition [6]: Active | Activity [7]: Active | Activity [8]: Dde | Activity [9]: Active | Activity [10]: Dde | Activity [12]: Dde | inhibition [14]: Dde | inhibition [15]: Active | Activity [17]: Active
